Reference: ChEMBL document CHEMBL1130105 (J Med Chem, 1997)

The compounds below were run against Gastrin/cholecystokinin type B receptor (Cavia porcellus) (assay: Inhibition of ligand binding to Cholecystokinin type B receptor from guinea pig cortical membrane.).

SMILES	IC50 [nM]
CCN(CC)C(=O)CN1C(=O)C(NC(=O)Nc2cccc(C)c2)N=C(c2ccccn2)c2ccccc21 (configuration not stated)	0.56
Cc1cccc(NC(=O)NC2N=C(c3ccccn3)c3ccccc3N(C)C2=O)c1 (configuration not stated)	66

What follows are compounds tested against T1, Cholecystokinin receptor type A (Rattus norvegicus, UniProt P30551) (assay: Inhibition of ligand binding to Cholecystokinin type A receptor from rat pancreatic tissue.).
T1 sequence (P30551 whole entry): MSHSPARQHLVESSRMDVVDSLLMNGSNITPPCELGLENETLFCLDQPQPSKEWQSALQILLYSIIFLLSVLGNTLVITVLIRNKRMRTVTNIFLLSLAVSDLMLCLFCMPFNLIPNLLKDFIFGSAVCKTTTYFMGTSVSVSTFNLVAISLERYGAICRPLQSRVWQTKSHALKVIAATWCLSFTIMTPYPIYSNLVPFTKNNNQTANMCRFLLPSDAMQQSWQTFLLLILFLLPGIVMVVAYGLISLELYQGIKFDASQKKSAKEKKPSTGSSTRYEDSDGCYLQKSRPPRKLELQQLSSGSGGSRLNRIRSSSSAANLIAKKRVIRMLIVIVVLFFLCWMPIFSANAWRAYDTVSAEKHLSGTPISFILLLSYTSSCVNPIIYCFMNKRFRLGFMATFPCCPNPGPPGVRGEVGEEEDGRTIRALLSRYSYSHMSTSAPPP

SMILES	IC50 [µM]
CCCN1C(=O)[C@H](NC(=O)Nc2ccc3c(c2)CCC3)N=C([C@H]2CC(C)(C)CCN2)c2ccccc21	4.02
CCCN1C(=O)[C@H](NC(=O)Nc2cccc(C)c2)N=C([C@H]2CCCCN2C)c2ccccc21	2.09
CCN(CC)C(=O)CN1C(=O)[C@H](NC(=O)Nc2cccc(C)c2)N=C(c2cccc[n+]2C)c2ccccc21	1.75
CCCN1C(=O)[C@H](NC(=O)Nc2cccc(C)c2)N=C([C@H]2CCC(C)(C)CCN2)c2ccccc21	1.51

Now from value to compound:

IC50 [µM]	SMILES
3.09	CCCN1C(=O)[C@H](NC(=O)Nc2cccc(C)c2)N=C([C@H]2CC(C)(C)CCN2)c2ccccc21
6.49	CN1C(=O)[C@H](NC(=O)Nc2ccc3c(c2)CCC3)N=C([C@H]2CCC(C)(C)CCN2)c2ccccc21
3	CCCN1C(=O)[C@H](NC(=O)Nc2cccc(C)c2)N=C([C@H]2CCCCN2)c2ccccc21
1.39	Cc1cccc(NC(=O)N[C@@H]2N=C([C@H]3CCC(C)(C)CCN3)c3ccccc3N(C)C2=O)c1
3.54	CCCN1C(=O)[C@H](NC(=O)Nc2cccc(C)c2)N=C([C@H]2CCC(C)(C)CCN2C)c2ccccc21
3	CCCN1C(=O)[C@H](NC(=O)Nc2cccc(C)c2)N=C([C@@H]2CCCCN2)c2ccccc21
